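Five compound concentrations were applied to cells in 96-well plates for 48 hours; endpoints were derived by simple linear interpolation of the resulting dose-response curve. TGI: concentration producing complete growth inhibition.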
Experiments:
Test in all cases: DTP human tumour cell line panel, 48 h
HCT-15 colon = tested on: HCT-15 colon
NCI/ADR-RES ovarian = tested on: NCI/ADR-RES ovarian
CAKI-1 renal = tested on: CAKI-1 renal
OVCAR-3 ovarian = tested on: OVCAR-3 ovarian
DU-145 prostate = tested on: DU-145 prostate
MCF7 breast = tested on: MCF7 breast
OVCAR-4 ovarian = tested on: OVCAR-4 ovarian
SW-620 colon = tested on: SW-620 colon
MALME-3M melanoma = tested on: MALME-3M melanoma
M14 melanoma = tested on: M14 melanoma
ACHN renal = tested on: ACHN renal
SNB-19 CNS = tested on: SNB-19 CNS
UO-31 renal = tested on: UO-31 renal
MDA-MB-231 breast = tested on: MDA-MB-231 breast
SK-MEL-5 melanoma = tested on: SK-MEL-5 melanoma
U251 CNS = tested on: U251 CNS
HOP-92 NSCLC = tested on: HOP-92 NSCLC
SR leukemia = tested on: SR leukemia
TK-10 renal = tested on: TK-10 renal
UACC-62 melanoma = tested on: UACC-62 melanoma

| SMILES | TGI (HCT-15 colon) [µM] | TGI (NCI/ADR-RES ovarian) [µM] | TGI (CAKI-1 renal) [µM] | TGI (OVCAR-3 ovarian) [µM] | TGI (DU-145 prostate) [µM] | TGI (MCF7 breast) [µM] | TGI (OVCAR-4 ovarian) [µM] | TGI (SW-620 colon) [µM] | TGI (MALME-3M melanoma) [µM] | TGI (M14 melanoma) [µM] | TGI (ACHN renal) [µM] | TGI (SNB-19 CNS) [µM] | TGI (UO-31 renal) [µM] | TGI (MDA-MB-231 breast) [µM] | TGI (SK-MEL-5 melanoma) [µM] | TGI (U251 CNS) [µM] | TGI (HOP-92 NSCLC) [µM] | TGI (SR leukemia) [µM] | TGI (TK-10 renal) [µM] | TGI (UACC-62 melanoma) [µM] |
| --- | --- | --- | --- | --- | --- | --- | --- | --- | --- | --- | --- | --- | --- | --- | --- | --- | --- | --- | --- | --- |
| Cc1ccc(S(=O)(=O)N/N=C2\CCC3(O)CC2(C)CCC2C3CC2(C)C)cc1 (stereo not given) | > 100 | > 100 | > 100 | > 100 | > 100 | > 100 | > 100 | > 100 | > 100 | > 100 | > 100 | > 100 | 80.3 | > 100 | > 100 | > 100 | > 100 | > 100 | 75.8 | > 100 |
| C=CCNC1=C2C[C@@H](C)C[C@H](OC)[C@H](O)[C@@H](C)/C=C(\C)[C@H](OC(N)=O)[C@@H](OC)/C=C\C=C(/C)C(=O)NC(=CC1=O)C2=O | 24.5 | 57.3 | 38 | 9.64 | 7.33 | 16 | 26.4 | 33.9 | 3.39 | 17 | 32.2 | 62.2 | 21.4 | 23.6 | 16.5 | 49.5 | 15.9 | 10.3 | 48.3 | 4.8 |
| COC(=O)Cc1c([C@H]2[C@H](CC(=O)OC)c3ccccc3N2S(=O)(=O)c2ccc(C)cc2)[nH]c2ccccc12 | > 100 | > 100 | > 100 | > 100 | > 100 | > 100 | > 100 | > 100 | > 100 | > 100 | > 100 | > 100 | > 100 | > 100 | > 100 | > 100 | > 100 | > 84.9 | > 100 | > 100 |
| Nc1nc(Cl)c2ncn(Cc3cccc(CCl)c3)c2n1 | 5.58 | 11.5 | 5.37 | 3.74 | 18.6 | > 31 | 5.07 | 11.9 | 18.1 | 12.9 | 12.4 | 20.6 | 33.7 | 27.6 | 15.9 | 6.15 | 24.5 | > 28.3 | 22.1 | 10.9 |
| C=CCN1C[C@H](C)N([C@H](c2ccc(C(=O)N(CC)CC)cc2)c2cccc(OC)c2)C[C@H]1C | > 100 | > 100 | > 100 | 50.5 | > 100 | > 100 | > 100 | > 100 | 47 | > 100 | > 100 | > 100 | > 100 | > 100 | 27.6 | > 100 | 63.9 | > 100 | > 100 | > 100 |
| c1ccc(Cn2c(-c3ccc(-c4ccccc4)cc3)cc3ccccc32)cc1 | > 100 | > 100 | > 100 | > 100 | > 100 | > 100 | > 100 | > 100 | > 100 | > 100 | > 100 | > 100 | > 100 | > 100 | > 100 | > 100 | > 100 | > 100 | > 100 | > 100 |
| OCCCCn1cc(Cn2ncc3c(NCc4ccccc4)ncnc32)nn1 | > 100 | > 100 | > 100 | > 100 | > 100 | > 100 | > 100 | > 100 | > 100 | > 100 | > 100 | > 100 | > 100 | > 100 | > 100 | > 100 | > 100 | > 100 | > 100 | > 100 |
| CCC/C(Cl)=N/OC(NC(=O)OCC)(C(F)(F)F)C(F)(F)F | 40.6 | > 100 | 35.6 | 29.6 | > 100 | 43.5 | 31.7 | 37.5 | 29.6 | 32.1 | 32.3 | > 100 | 33.8 | 31.6 | 71.4 | > 100 | 36.2 | 57.6 | 33.3 | > 100 |
| CC/C(Cl)=N\OC(=O)Nc1ccc(OC)c(C)c1 | 34.5 | 37.5 | 1.84 | 50 | > 100 | > 64.3 | 36.5 | > 68.8 | 26.6 | 44.1 | 21.5 | > 100 | 35.5 | > 88.6 | 39.1 | > 100 | 5.69 | 26.9 | 41.7 | 28.9 |
